Experimental findings from ChEMBL document CHEMBL1149275, “Structure-activity relationships of acetylcholinesterase noncovalent inhibitors based on a polyamine backbone. 3. Effect of replacing the inner polymethylene chain with cyclic moieties” (J Med Chem, 2004) are described below.

The target of one experiment is Acetylcholinesterase (Homo sapiens, UniProt P22303).
A further experiment deals with Cholinesterase (Homo sapiens, UniProt P06276).
Experiment [1] has as its target T1, Muscarinic acetylcholine receptor M2 (Homo sapiens) (UniProt P08172).
T1 sequence (whole entry): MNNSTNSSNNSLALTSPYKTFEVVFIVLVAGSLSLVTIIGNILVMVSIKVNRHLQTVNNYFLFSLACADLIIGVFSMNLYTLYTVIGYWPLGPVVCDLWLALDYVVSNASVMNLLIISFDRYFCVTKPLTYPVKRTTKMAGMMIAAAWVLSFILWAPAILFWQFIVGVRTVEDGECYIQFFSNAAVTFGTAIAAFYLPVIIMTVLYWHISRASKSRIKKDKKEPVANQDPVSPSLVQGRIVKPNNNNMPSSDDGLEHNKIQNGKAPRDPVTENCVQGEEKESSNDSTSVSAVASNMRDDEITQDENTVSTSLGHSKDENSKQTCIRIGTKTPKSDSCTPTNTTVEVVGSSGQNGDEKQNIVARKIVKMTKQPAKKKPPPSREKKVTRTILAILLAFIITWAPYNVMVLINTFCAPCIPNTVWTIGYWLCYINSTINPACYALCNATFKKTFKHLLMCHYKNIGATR
The following applies: Cavia porcellus; Cardiac atrium.
Description: Antagonist activity at muscarinic M2 receptor assessed as contraction of electrically stimulated guinea pig left atrium at 10 uM

Chain of Cholinesterase (P06276 whole entry): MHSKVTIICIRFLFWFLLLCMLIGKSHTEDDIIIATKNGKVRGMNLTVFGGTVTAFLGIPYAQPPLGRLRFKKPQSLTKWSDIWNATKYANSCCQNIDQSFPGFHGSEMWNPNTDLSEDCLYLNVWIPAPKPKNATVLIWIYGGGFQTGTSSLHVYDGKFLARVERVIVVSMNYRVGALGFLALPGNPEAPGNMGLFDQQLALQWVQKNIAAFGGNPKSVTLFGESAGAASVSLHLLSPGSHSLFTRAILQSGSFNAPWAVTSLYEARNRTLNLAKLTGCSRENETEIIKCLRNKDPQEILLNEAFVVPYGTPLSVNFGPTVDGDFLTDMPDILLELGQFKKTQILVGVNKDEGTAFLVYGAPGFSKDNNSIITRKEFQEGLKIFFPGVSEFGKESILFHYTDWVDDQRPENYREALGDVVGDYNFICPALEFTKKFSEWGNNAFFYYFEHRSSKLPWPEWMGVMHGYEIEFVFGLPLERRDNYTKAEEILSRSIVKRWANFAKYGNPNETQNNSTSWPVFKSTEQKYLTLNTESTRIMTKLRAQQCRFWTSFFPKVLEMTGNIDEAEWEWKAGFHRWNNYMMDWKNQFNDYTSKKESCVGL
Chain of Acetylcholinesterase (P22303 whole entry): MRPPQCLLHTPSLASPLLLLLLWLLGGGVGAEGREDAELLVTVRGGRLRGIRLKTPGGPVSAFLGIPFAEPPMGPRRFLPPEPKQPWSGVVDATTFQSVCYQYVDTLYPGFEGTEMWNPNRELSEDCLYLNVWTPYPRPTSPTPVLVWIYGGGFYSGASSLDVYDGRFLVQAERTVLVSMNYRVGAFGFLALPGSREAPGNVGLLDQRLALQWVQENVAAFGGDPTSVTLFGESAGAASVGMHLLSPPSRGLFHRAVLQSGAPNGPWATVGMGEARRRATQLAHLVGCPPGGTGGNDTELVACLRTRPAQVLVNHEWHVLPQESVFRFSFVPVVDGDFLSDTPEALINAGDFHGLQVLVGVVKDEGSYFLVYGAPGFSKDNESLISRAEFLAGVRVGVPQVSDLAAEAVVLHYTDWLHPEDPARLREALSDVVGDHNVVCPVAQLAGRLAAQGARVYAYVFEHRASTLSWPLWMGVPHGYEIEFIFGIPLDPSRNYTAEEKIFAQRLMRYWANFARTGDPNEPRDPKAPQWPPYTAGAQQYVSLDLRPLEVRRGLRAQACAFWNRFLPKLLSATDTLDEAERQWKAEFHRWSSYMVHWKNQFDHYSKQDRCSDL
Description for Acetylcholinesterase: Inhibition of human recombinant AChE

On to `CC[N+](C)(CCCCCC(=O)N1CCC(CCCC2CCN(C(=O)CCCCC[N+](C)(CC)Cc3ccccc3OC)CC2)CC1)Cc1ccccc1OC` (stereo not given), for which the IC50 (in general, the concentration at which inhibition is half-maximal) against Acetylcholinesterase was 0.00575 µM; against Cholinesterase, 0.661 µM.
In the case of `CC[N+](C)(CCCCCC(=O)N1CCC(CCC2CCN(C(=O)CCCCC[N+](C)(CC)Cc3ccccc3OC)CC2)CC1)Cc1ccccc1OC` (stereo not given), the IC50 at Acetylcholinesterase is 0.00575 µM; against Cholinesterase, 1.86 µM.
In the case of `CCN(CCCCCC(=O)Nc1ccc(Cc2ccc(NC(=O)CCCCCN(CC)Cc3ccccc3OC)cc2)cc1)Cc1ccccc1OC`, the IC50 at Acetylcholinesterase is 0.0631 µM; against Cholinesterase it was 1.82 µM.
For `CCN(CCCCCC(=O)Nc1ccc(-c2ccc(NC(=O)CCCCCN(CC)Cc3ccccc3OC)cc2)cc1)Cc1ccccc1OC`, the IC50 against Acetylcholinesterase was 0.0363 µM; at Cholinesterase, 1.86 µM.
Regarding `CCN(CCCCCCNc1ccc(Cc2ccc(NCCCCCCN(CC)Cc3ccccc3OC)cc2)cc1)Cc1ccccc1OC`, the IC50 against Acetylcholinesterase is 1.07 µM; against Cholinesterase, 1.62 µM.
Regarding `CC[N+](C)(CCCCCC(=O)Nc1ccc(CCc2ccc(NC(=O)CCCCC[N+](C)(CC)Cc3ccccc3OC)cc2)cc1)Cc1ccccc1OC` (stereo not given), the IC50 against Acetylcholinesterase was 0.12 µM; against Cholinesterase it was 1.1 µM.
With `CCN(CCCCCC(=O)N1CCC(CCCC2CCN(C(=O)CCCCCN(CC)Cc3ccccc3OC)CC2)CC1)Cc1ccccc1OC`, the IC50 is 0.00661 µM on Acetylcholinesterase and 3.39 µM on Cholinesterase.
In the case of `CCN(CCCCCC(=O)N1CCC(CC2CCN(C(=O)CCCCCN(CC)Cc3ccccc3OC)CC2)CC1)Cc1ccccc1OC`, the results for the IC50 against Acetylcholinesterase and on Cholinesterase were 0.00331 µM and 6.46 µM, respectively.
The matching figures for `CCN(CCCCCC(=O)N1CCC(CCC2CCN(C(=O)CCCCCN(CC)Cc3ccccc3OC)CC2)CC1)Cc1ccccc1OC`: 0.00741 µM and 3.63 µM.
The matching figures for `CCN(CCCCCCNc1ccc(-c2ccc(NCCCCCCN(CC)Cc3ccccc3OC)cc2)cc1)Cc1ccccc1OC`: 2.63 µM and 15.5 µM.
Take `COc1ccccc1CN(C)CCCCCC(=O)N(C)CCCCCCCCN(C)C(=O)CCCCCN(C)Cc1ccccc1OC`: the pKb (in general, the negative decadic logarithm of the Kb, by convention in mol/L) in experiment [1] was 6.39.
As to `CCN(CCCCCC(=O)N1CCC(C2CCN(C(=O)CCCCCN(CC)Cc3ccccc3OC)CC2)CC1)Cc1ccccc1OC`, the results for the IC50 against Acetylcholinesterase and against Cholinesterase were 0.00331 µM and 8.51 µM, respectively. The Ki (usually the dissociation constant of the complex between target and ligand, obtained from inhibition or displacement) at Acetylcholinesterase was found to be 0.00567 µM. In experiment [1], this molecule had a pKb of 6.18.
Regarding `CCN(CCCCCC(=O)Nc1ccc(CCc2ccc(NC(=O)CCCCCN(CC)Cc3ccccc3OC)cc2)cc1)Cc1ccccc1OC`, the IC50 is 0.17 µM against Acetylcholinesterase and 1.7 µM on Cholinesterase.
On to `CCN(CCCCCC(=O)N(C)CCCCCCCCN(C)C(=O)CCCCCN(CC)Cc1ccccc1OC)Cc1ccccc1OC`, for which the pKb in experiment [1] came to 5.65.
Regarding `CCN(CCCCCCNc1ccc(CCc2ccc(NCCCCCCN(CC)Cc3ccccc3OC)cc2)cc1)Cc1ccccc1OC`, the results for the IC50 at Acetylcholinesterase and at Cholinesterase were 30.9 µM and 95.5 µM, respectively.
